From US4914086A, “Method for treating African human and veterinary trypanosomiases” (priority 1987, dated 1990)
Entries after “also recorded” stand apart in the source; their conditions may differ.

Legend:
[1] = test system: human colon carcinoma cells; conditions: cited from earlier work
T. b. brucei EATRO 110 = experiment: Drug screen, acute EATRO 110 mouse infection (Tables 1, 3); assay type: in vivo, Trypanosoma brucei brucei (in Swiss-Webster mice); conditions: for activity in words: 300 mg/kg; for activity in the acute (short term) EATRO 110 model, in words: text summary
Excerpt: (§1) T. b. brucei EATRO 110 isolate was maintained as described (Bacchi, C. J., H. C. Nathan, S. H. Hutner, P. P. McCann and A. Sjoerdsma; Polyamine metabolism: a potential chemotherapeutic target in trypanosomes. Science 210: 332-334, 1980). It produces an acute, rapidly fatal parasitemia which is lethal to mice 3-5 days after inoculation. Two T. B. brucei strains, TREU 667 and LUMP 1001 developed by Jennings and coworkers (Jennings, F. W., D. D. Whitelaw and G. M. Urquhart; The relationship between duration of infection with Trypanosoma brucei in mice and the efficacy of chemotherapy. Parasitology 75: 143-153, 1977/Jennings, F. W. and G. D. Gray; Relapsed parasitemia following chemotherapy of chronic T. brucei infections in mice and its relation to cerebral trypanosomes; Contr. Microbiol. Immunol. 7 147-154, 1983) were used as CNS models. Both produce infections which are refractory to Berenil® (diminazene aceturate) and develop within 21 days after inoculation. They are not usually fatal until >40 days after inoculation. LUMP 1001 causes a more virulent CNS infection than TREU 667, and is regarded as more difficult to cure (Jennings, F. W. and G. D. Gray. Relapsed parasitemia following chemotherapy of chronic T. brucei infections in mice and its relation to cerebral trypanosomes. Contr. Microbiol. Immunol. 7 147-154, 1983).
(§2) Swiss-Webster (25-30 g) mice were used throughout. In the EATRO 110 model, groups of 100 mice were infected (10^5 trypanosomes/mouse) and the infection was allowed to develop 24 hours before commencing therapy. Animals were divided into groups of 5 before treatment. Cured animals survived >30 days beyond deaths of controls. All compounds were administered by i.p. injection.
Other methods as in Table 1.

T. brucei subsp. = conditions: cited from earlier work
T. cruzi = conditions: previous studies; cited from earlier work
T. b. brucei TREU 667 = experiment: CNS model, T. b. brucei TREU 667 infection in mice (Table 4); assay type: in vivo, Trypanosoma brucei brucei (in Swiss-Webster mice); conditions: for efficacy in CNS model in words: 100 mg/kg × 6 doses/days
Excerpt: as §1
The models for […] nervous system infections used TREU 667 and LUMP 1001 strains which were stored frozen and passaged once in rats before infection of mice. Maintenance and use of these screens were as described (Clarkson, A. B. Jr., C. J. Bacchi, G. H. Mellon, H. C. Nathan, P. P. McCann and A. Sjoerdsma. Efficacy of DFMO+blemoycin in a mouse model of central nervous system African trypanosomiasis. Proc. Natl. Acad. Sci. USA. 80: 5729-5733, 1983/Clarkson, A. B. Jr., E. J. Biene, C. J. Bacchi, P. P. McCann, S. H. Hutner and A. Sjoerdsma. New drug combination for experimental late stage African trypanosomiasis: DFMO with suramin. Am. J. Trop. Med. Hyg. 33: 1073-1077, 1984/Dube, D. K., G. Mpimbaza, A. C. Allison, E. Lederer and L. Rovis. Antitrypanosomal activity of sinefungin, Am. J. Trop. Med. Hyg. 32: 31-33, 1983/Fish, W. R., J. J. Marr, R. L. Berens, D. L. Looker, D. J. Nelson, S. LaFon and A. E. Balber. Inosine analogs as chemotherapeutic agents for African trypanosomes: metabolism in trypanosomes and efficacy in tissue culture. Anti-microb. Ag. Chemother. 27: 33-36, 1985/Clazer, R. I., and L. S. Lloyd. Effects of 8-azaadenosine and formycin on cell lethality and the synthesis and methylation of nucleic acids in human colon carcinoma cells in culture. Biochem. Pharmacol. 31: 3207-3214, 1982/Bacchi, C. J., H. C. Nathan, A. B. Clarkson, Jr., E. J. Bienen, A. J. Bitonti, P. P. McCann and A. Sjoerdsma. Activity of the ornithine decarboxylase inhibitors DL-α-difluoromethylornithine and monofluormethyldehydroornithine methylester alone and in combination with suramin against Trypanosoma brucei brucei central nervous system models, Am. J. Trop. Med. Hyg. (in press)). Briefly, groups of 100-120 mice were infected and the infections allowed to develop until day 21, when the animals were separated into groups of 10 and therapy commenced. Controls were treated with Berenil (40 mg/kg) on day 21. These always relapsed 40-70 days after treatment. Parasitemia was followed by examining tail vein blood smears once weekly. Animals which had relapsed were removed from cages. TREU 667 infections were followed >225 days after inoculation and LUMP 1001 were followed >280 days, as determined by the relapse pattern in previous work (Bacchi, C. J., H. C. Nathan, A. B. Clarkson, Jr., E. J. Bienen, A. J. Bitonti, P. P. McCann and A. Sjoerdsma. Activity of the ornithine decarboxylase inhibitors DL-α-difluoromethylornithine and monofluormethyldehydroornithine methylester alone and in combination with suramin against Trypanosoma brucei brucei central nervous system models. Am. J. Trop. Med. Hyg. (in press)). […]

Leishmania spp = conditions: previous studies; cited from earlier work
in vivo = experiment: in vivo
Method: as §2

mammalian cells = conditions: cited from earlier work
[2] = test system: Trypanosoma brucei gambiense; conditions: bone marrow tissue culture system; cited from earlier work
Pneumocystis Carinii = conditions: tissue culture; cited from earlier work
human macrophages = conditions: cited from earlier work
African trypanosomes = conditions: previous studies; cited from earlier work
[3] = test system: Trypanosoma brucei rhodesiense; conditions: bone marrow tissue culture system; cited from earlier work
mouse L cells = conditions: cited from earlier work
[4] = Table 1, 300 mg/kg i.p., treatment begun 24 h post infection
[5] = Table 1, 2.5 mg/kg i.p. (9-DINO, sinefungin once daily for 3 days)
[6] = Table 1, 5 mg/kg i.p. (9-DINO, sinefungin once daily for 3 days)
[7] = Table 1, 10 mg/kg i.p. (9-DINO, sinefungin once daily for 3 days)
[8] = Table 1, 25 mg/kg i.p. (9-DINO, sinefungin once daily for 3 days)
[9] = Table 1, 50 mg/kg i.p. (9-DINO, sinefungin once daily for 3 days)
[10] = Table 1, 100 mg/kg i.p. (9-DINO, sinefungin once daily for 3 days)
[11] = Table 3, 0.05 mg/kg i.p. once daily for 3 days
[12] = Table 3, 0.1 mg/kg i.p. once daily for 3 days
[13] = Table 3, 0.25 mg/kg i.p. once daily for 3 days
[14] = Table 3, 0.5 mg/kg i.p. once daily for 3 days
[15] = Table 1, 250 mg/kg i.p., treatment begun 24 h post infection

Structure (SMILES): Nc1ncnc2c([C@@H]3O[C@H](CO)[C@@H](O)[C@H]3O)n[nH]c12 [formycin A]
- incorporation into DNA in words [1]: can be incorporated into DNA

Structure (SMILES): Oc1ncnc2[nH]ncc12 [Allopurinol, reference compound]
- activity in words (T. b. brucei EATRO 110): completely inactive
- # Cured/Total (T. b. brucei EATRO 110; [4]): 0/5
- % Cured (T. b. brucei EATRO 110; [4]): 0%

Structure (SMILES): O=c1[nH]cnc2c([C@@H]3O[C@H](CO)[C@@H](O)[C@H]3O)n[nH]c12 [Formycin B, 7-hydroxypyrazolo (4,3-d) pyrimidine ribonucleoside]
- metabolism in words (T. brucei subsp.): can be aminated by T. brucei subsp. and converted to analogs of ATP
- activity in words (T. cruzi): active
- # Cured/Total (T. b. brucei TREU 667; 5 mg/kg i.p., 7 days): 0/8
- % Cured (T. b. brucei TREU 667; 5 mg/kg i.p., 7 days): 0%
- Avg. Day of Relapse (Range) (T. b. brucei TREU 667; 5 mg/kg i.p., 7 days): 42 (37-49) Day
- # Cured/Total (T. b. brucei TREU 667; 10 mg/kg i.p., 7 days): 0/9
- % Cured (T. b. brucei TREU 667; 10 mg/kg i.p., 7 days): 0%
- Avg. Day of Relapse (Range) (T. b. brucei TREU 667; 10 mg/kg i.p., 7 days): 40 (37-41) Day
- # Cured/Total (T. b. brucei TREU 667; 25 mg/kg i.p., 7 days): 0/10
- % Cured (T. b. brucei TREU 667; 25 mg/kg i.p., 7 days): 0%
- Avg. Day of Relapse (Range) (T. b. brucei TREU 667; 25 mg/kg i.p., 7 days): 40 (37-68) Day
- # Cured/Total (T. b. brucei TREU 667; 50 mg/kg i.p., 6 days): 0/10
- % Cured (T. b. brucei TREU 667; 50 mg/kg i.p., 6 days): 0%
- Avg. Day of Relapse (Range) (T. b. brucei TREU 667; 50 mg/kg i.p., 6 days): 34 (23-35) Day
- # Cured/Total (T. b. brucei TREU 667; 100 mg/kg i.p., 6 days): 0/9
- % Cured (T. b. brucei TREU 667; 100 mg/kg i.p., 6 days): 0%
- Avg. Day of Relapse (Range) (T. b. brucei TREU 667; 100 mg/kg i.p., 6 days): 35 days
- efficacy in CNS model in words (T. b. brucei TREU 667): not curative
- efficacy in CNS model in words (T. b. brucei TREU 667; listed as formycin B): failed to protect
- activity in words (Leishmania spp): active
- curative / active dose range (T. b. brucei EATRO 110; EATRO 110, text): 5 to 100 mg/kg
- # Cured/Total (T. b. brucei EATRO 110; [5]): 5/5
- % Cured (T. b. brucei EATRO 110; [5]): 100%
- # Cured/Total (T. b. brucei EATRO 110; [6]): 4/5
- % Cured (T. b. brucei EATRO 110; [6]): 80%
- # Cured/Total (T. b. brucei EATRO 110; [7]): 5/5
- % Cured (T. b. brucei EATRO 110; [7]): 100%
- # Cured/Total (T. b. brucei EATRO 110; [8]): 9/10
- % Cured (T. b. brucei EATRO 110; [8]): 90%
- # Cured/Total (T. b. brucei EATRO 110; [9]): 5/5
- % Cured (T. b. brucei EATRO 110; [9]): 100%
- # Cured/Total (T. b. brucei EATRO 110; [10]): 4/5
- % Cured (T. b. brucei EATRO 110; [10]): 80%
- # Cured/Total (T. b. brucei EATRO 110; [11]): 0/5
- % Cured (T. b. brucei EATRO 110; [11]): 0%
- # Cured/Total (T. b. brucei EATRO 110; [12]): 0/5
- % Cured (T. b. brucei EATRO 110; [12]): 0%
- # Cured/Total (T. b. brucei EATRO 110; [13]): 1/10
- % Cured (T. b. brucei EATRO 110; [13]): 10%
- # Cured/Total (T. b. brucei EATRO 110; [14]): 3/5
- % Cured (T. b. brucei EATRO 110; [14]): 60%
- relative activity of formycin B versus 9-DINO (T. b. brucei EATRO 110; comparison of activity ranges): > 10 X
- activity in the acute (short term) EATRO 110 model, in words (T. b. brucei EATRO 110): most active; also recorded: extremely active
- activity in the acute (short term) EATRO 110 model, in words (T. b. brucei EATRO 110; listed as formycin B): greatest activity; also recorded: more active than 9-DINO
- toxicity in words (in vivo; 100 mg/kg): toxicity was observed; also recorded: loss of hair
- mortality (in vivo; mouse, in vivo, ip, 100 mg/kg): 20%
- dose at which toxicity appeared (in vivo; short term model, Table 1): 100 mg/kg
- cleavage into ribose and purine analog moieties (mammalian cells): cannot be cleaved into ribose and purine analog moieties
- metabolism in words (mammalian cells): metabolized by mammalian cells to its aminated analog formycin A
- activity in words [2]: active at very low concentrations; also recorded: somewhat more efficacious than 9-deazainosine
- activity in words (Pneumocystis Carinii): active
- conversion to adenine nucleotide analogs / incorporation in words (human macrophages): this occurred in human macrophages
- activity in words (African trypanosomes): active
- activity in words [3]: active at very low concentrations; also recorded: somewhat more efficacious than 9-deazainosine
- metabolism in words (mouse L cells): Mouse L cells can convert formycin B to the analogs of adenine nucleotides and incorporate the ATP analog into RNA

Structure (SMILES): O=c1ncnc2n([C@H]3O[C@@H](CO)[C@H](O)[C@@H]3O)[nH]cc1-2 (stereo in doubt) [Allopurinol Riboside, reference compound]
- activity in words (T. b. brucei EATRO 110): completely inactive
- # Cured/Total (T. b. brucei EATRO 110; [15]): 0/5
- % Cured (T. b. brucei EATRO 110; [15]): 0%
